In test [1] the target is T1, human VR1 (Homo sapiens, UniProt Q8NER1).
T1 construct: expressed in transfected cells; host or cells: HEK293
The experiment in a line: Human VR1 [3H]RTX binding assay. Particulars: for Ki: [3H]RTX binding, HEK293 membranes; for h Binding % I (1 μM) / inhibition at 1 µM: inhibition of [3H]RTX binding at 1 μM; for inhibition at 1 µM: read-out: h Binding % I (1 μM). In a few lines:
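Membranes from human VR1-transfected HEK293 cells (~120 μg protein/ml) incubated with [3H]RTX in HEPES pH 7.4 with 0.25 mg/mL BSA, 37 C, 60 min. Bound counts by scintillation after α-acid glycoprotein and centrifugation; nonspecific defined with 200 nM unlabelled RTX. Ki from duplicate means.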

Test [2] deals with T1, human VR1. Nature of the test: Human VR1 functional assay (FLIPR intracellular Ca2+). The settings on record: for IC50: antagonism of capsaicin-induced Ca2+ increase, read-out: h IC50; for inhibition at 5 µM / h % I (5 μM) / h % I (10 μM) / inhibition at 1 µM: inhibition of capsaicin response; for inhibition at 5 µM: read-out: h % I (5 μM); for % Response Relative to EC80 of Capsaicin (12 μM) / Emax at 12 µM / Emax at 6 µM: agonist response; for Emax at 12 µM: read-out: % Response Relative to EC80 of Capsaicin (12 μM); for inhibition at 1 µM: read-out: h % I (1 μM); for EC50: agonist-induced Ca2+ increase, read-out: h EC50; for Emax at 6 µM: read-out: % Response Relative to EC80 of Capsaicin (6 μM). The class given is cell-based. Put shortly:
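HEK293 cells expressing human VR1, loaded with Calcium 3 dye, were exposed to test compounds for 5 min while FLIPR recorded intracellular Ca2+, then challenged with capsaicin at ~80% maximal response ([…]). EC50 or IC50 came from dose-response curves on quadruplicate-well means.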

The Ki is the equilibrium dissociation constant of an inhibitor or competing ligand from its target. Broadly, the IC50 is the midpoint of a concentration-inhibition curve. As usually defined, the EC50 is the concentration needed to bring the measured effect to its halfway point.

T1 sequence (Q8NER1 whole entry): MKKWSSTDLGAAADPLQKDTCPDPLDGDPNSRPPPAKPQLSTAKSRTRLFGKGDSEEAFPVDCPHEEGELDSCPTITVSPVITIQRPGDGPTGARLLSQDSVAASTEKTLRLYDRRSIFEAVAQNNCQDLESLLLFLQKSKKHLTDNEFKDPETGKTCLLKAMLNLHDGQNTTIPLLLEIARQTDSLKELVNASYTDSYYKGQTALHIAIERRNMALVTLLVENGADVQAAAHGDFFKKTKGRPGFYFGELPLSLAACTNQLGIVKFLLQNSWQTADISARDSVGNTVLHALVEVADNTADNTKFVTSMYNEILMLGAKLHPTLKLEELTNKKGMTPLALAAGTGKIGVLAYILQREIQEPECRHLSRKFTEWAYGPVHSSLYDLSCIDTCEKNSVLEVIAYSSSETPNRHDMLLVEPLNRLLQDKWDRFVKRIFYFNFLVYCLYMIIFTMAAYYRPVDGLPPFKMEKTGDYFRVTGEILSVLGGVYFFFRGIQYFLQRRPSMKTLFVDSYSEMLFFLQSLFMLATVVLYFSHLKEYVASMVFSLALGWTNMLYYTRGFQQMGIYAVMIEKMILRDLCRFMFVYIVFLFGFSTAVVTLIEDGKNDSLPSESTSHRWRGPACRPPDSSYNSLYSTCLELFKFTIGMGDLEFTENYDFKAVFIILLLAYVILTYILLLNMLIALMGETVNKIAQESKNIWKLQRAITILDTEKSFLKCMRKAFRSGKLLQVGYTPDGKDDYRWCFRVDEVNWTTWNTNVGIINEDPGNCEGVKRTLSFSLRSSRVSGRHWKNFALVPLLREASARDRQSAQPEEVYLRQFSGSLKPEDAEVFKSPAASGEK

The compound `O=C(CCc1ccc(C(F)(F)F)cc1)Nc1cnc(-c2cccc(O)c2)c(C(F)(F)F)c1` [Cpd 210, N-[6-(3-Hydroxy-phenyl)-5-trifluoromethyl-pyridin-3-yl]-3-(4-trifluoromethyl-phenyl)-propionamide] displayed a Ki on human VR1 [1] of 54.5 nM. At human VR1 [2], the IC50 was found to be 57 nM and the inhibition at 5 µM turned out to be 100%.

Turning to `CC(=O)Nc1cccc(-c2ccc(NC(=O)CCc3ccc(C(F)(F)F)cc3)cn2)c1` [Cpd 145], the “h Binding % I (1 μM)” value at human VR1 [1] amounted to 16%. Moreover, the “% Response Relative to EC80 of Capsaicin (12 μM)” value (“% Response Relative to EC80” below) on human VR1 [2] is 92%.

Consider `O=C(CCc1ccc(C(F)(F)F)cc1)Nc1ccc(-c2cccc(O)c2)nc1` [Cpd 147], for which, on human VR1 [1], the inhibitory constant (Ki) was 319 nM and the inhibition at 1 µM turned out to be 62%. Also, on human VR1 [2], the Emax at 12 µM is 92%.

As for `NC(=O)c1cccc(-c2ccc(NC(=O)CCc3ccc(C(F)(F)F)cc3)c3ccccc23)c1` [Cpd 83], the “h Binding % I (1 μM)” value on human VR1 [1] is listed as 1%. In addition, at human VR1 [2], the “h % I (5 μM)” value is on record as 31%.

Consider `O=C(CCc1ccc(C(F)(F)F)cc1)Nc1ccc(-c2ccc(CO)cc2)cc1` [Cpd 80], for which, at human VR1 [1], the affinity corresponds to a Ki of 269 nM and the inhibition at 1 µM worked out at 62%. The Emax at 12 µM on human VR1 [2] was determined as 77%.

Turning to `CC(C)(C)c1ccc(CCC(=O)Nc2cccc(-c3ccc(CO)cc3)c2)cc1` [Cpd 22], the “h Binding % I (1 μM)” value at human VR1 [1] was 1%. Moreover, the “h % I (10 μM)” value at human VR1 [2] worked out at 1%.

On to `CC(C)(C)c1ccc(CCC(=O)Nc2cccc(-c3cccc(CO)c3)c2)cc1` [Cpd 21], for which the “h Binding % I (1 μM)” value at human VR1 [1] came to 1%. Also, the “% Response Relative to EC80” value at human VR1 [2] is on record as 45%.

Consider `CC(=O)Nc1cccc(-c2ccc(NC(=O)CCc3ccc(C(C)(C)C)cc3)c3ccccc23)c1` [Cpd 81], for which the “h Binding % I (1 μM)” value at human VR1 [1] is on record as 6%. The “h % I (5 μM)” value at human VR1 [2] worked out at 11%.

Take `CN(C)C(=O)c1cccc(-c2ccc(NC(=O)CCc3ccc(C(C)(C)C)cc3)cc2)c1` [Cpd 39]: the “h Binding % I (1 μM)” value on human VR1 [1] is 5%. Further, on human VR1 [2], the “h % I (10 μM)” value is 24%.

As to `Cc1cc(NC(=O)CCc2ccc(C(C)(C)C)cc2)ccc1-c1cccnc1` [Cpd 179], on human VR1 [1], the Ki stood at 67 nM. In addition, on human VR1 [2], the 50% inhibitory concentration (IC50) came out at 266 nM, the inhibition at 1 µM came to 81% and the inhibition at 5 µM was determined as 100%.

For `CC(C)(C)c1ccc(CCC(=O)Nc2ccc(-c3cncnc3)cc2)cc1` [Cpd 113], at human VR1 [1], the affinity corresponds to a Ki of 324 nM and the inhibition at 1 µM worked out at 67%. Moreover, on human VR1 [2], the Emax at 12 µM worked out at 101% and the EC50 stood at 773 nM.

On to `CC(C)(C)c1ccc(CCC(=O)Nc2ccc(-c3ccc(CO)cc3)c(F)c2)cc1` [Cpd 102], for which the Ki at human VR1 [1] is 39 nM. At human VR1 [2], the Emax at 6 µM was found to be 74% and the inhibition at 1 µM is 97%.

`Cc1cc(NC(=O)CCc2ccc(C(C)(C)C)cc2)ccc1-c1ccccc1O` [Cpd 97] gave an inhibitory constant (Ki) on human VR1 [1] of 15 nM. Also, at human VR1 [2], the IC50 amounted to 228 nM, the inhibition at 1 µM stood at 95% and the inhibition at 5 µM came to 104%.

Take `CC(C)(C)OC(=O)NCc1cccc(-c2ccc(NC(=O)CCc3ccc(C(C)(C)C)cc3)cc2)c1` [Cpd 42]: the “h Binding % I (1 μM)” value at human VR1 [1] was determined as 1.1%. Also, the “h % I (10 μM)” value on human VR1 [2] is 9%.

For `O=C(CCc1ccc(C(F)(F)F)cc1)Nc1ccc(-c2ccc(CO)cc2)nc1` [Cpd 150], at human VR1 [1], affinity was put at a Ki of 149 nM and the inhibition at 1 µM came out at 75%. Further, the Emax at 12 µM on human VR1 [2] worked out at 79%.

As for `O=C(CCc1ccc(C(F)(F)F)cc1)Nc1ccc(-c2ccccc2O)cc1` [Cpd 76], on human VR1 [1], the Ki was 421 nM and the inhibition at 1 µM was found to be 50%. Also, the Emax at 12 µM at human VR1 [2] worked out at 77%.

As to `CC(C)(C)c1ccc(CCC(=O)Nc2ccc(-c3cccc(N)c3)cc2)cc1` [Cpd 17], on human VR1 [1], the Ki is 48 nM and the inhibition at 1 µM came to 90%. For the same compound, the Emax at 12 µM on human VR1 [2] turned out to be 67%.

Regarding `Cc1cc(NC(=O)CCc2ccc(C(C)(C)C)cc2)ccc1-c1ccc(O)cc1` [Cpd 98], affinity on human VR1 [1] was put at a Ki of 58 nM. Moreover, on human VR1 [2], the IC50 came to 418 nM, the inhibition at 1 µM was 97% and the inhibition at 5 µM came out at 102%.

Turning to `Cc1cn(-c2ccc(NC(=O)CCc3ccc(C(F)(F)F)cn3)cc2C(F)(F)F)cn1` [Cpd 233, N-[4-(4-Methyl-imidazol-1-yl)-3-trifluoromethyl-phenyl]-3-(5-trifluoromethyl-pyridin-2-yl)-propionamide], the Ki at human VR1 [1] stood at 1000 nM. For the same compound, on human VR1 [2], the half-inhibitory concentration (IC50) came to 259 nM and the inhibition at 1 µM was found to be 98%.

As for `CC(C)(C)c1ccc(CCC(=O)Nc2ccccc2-c2cccnc2)cc1` [Cpd 105], the inhibition at 1 µM at human VR1 [1] is 1%. The IC50 at human VR1 [2] was determined as 3950 nM.

Turning to `O=C(CCc1ccc(C(F)(F)F)cc1)Nc1cnc(-n2ccnc2)c(C(F)(F)F)c1` [Cpd 240], affinity on human VR1 [1] was put at a Ki of 3850 nM. On human VR1 [2], the IC50 was 379 nM and the inhibition at 5 µM is 101%.

Take `CC(C)(C)c1ccc(CCC(=O)Nc2ccc(-c3cccc(O)c3)cc2F)cc1` [Cpd 60]: at human VR1 [1], the Ki was found to be 541 nM and the inhibition at 1 µM stood at 52%. For the same compound, the Emax at 12 µM at human VR1 [2] came to 84%.

For `Cc1nc(-c2ccc(NC(=O)CCc3ccc(C(C)(C)C)cc3)cc2)cs1` [Cpd 195], the “h Binding % I (1 μM)” value at human VR1 [1] was 75%. Further, the “h % I (5 μM)” value at human VR1 [2] is 20%.

In turn, `Cc1cc(NC(=O)CCc2ccc(C(C)(C)C)cc2)ccc1-c1ccncc1` [Cpd 180] returned a Ki on human VR1 [1] of 42 nM. In addition, on human VR1 [2], the Emax at 6 µM is 96% and the inhibition at 1 µM is 91%.

Regarding `CC(C)(C)c1ccc(CCC(=O)Nc2ccc(-c3cccc(NC(N)=O)c3)cc2)cc1` [Cpd 44], on human VR1 [1], the Ki was 52 nM and the inhibition at 1 µM was 97%. On human VR1 [2], the Emax at 12 µM worked out at 102% and the EC50 was 289 nM.

On to `Cc1cc(NC(=O)CCc2ccc(Cl)cc2)cnc1-n1cnc(Cl)c1Cl` [Cpd 234], for which, on human VR1 [1], the affinity, expressed as Ki, was 85.5 nM. Besides, on human VR1 [2], the IC50 is 290 nM and the inhibition at 1 µM turned out to be 88%.

For `CN(C)C(=O)c1cccc(-c2cccc(NC(=O)CCc3ccc(C(C)(C)C)cc3)c2)c1` [Cpd 38], at human VR1 [1], the “h Binding % I (1 μM)” value worked out at 1%. In addition, the “h % I (10 μM)” value at human VR1 [2] came out at 17%.

With `CC(C)(C)c1ccc(CCC(=O)Nc2ccc(-c3ccc(O)cc3)c(CO)c2)cc1` [Cpd 94], the affinity on human VR1 [1] corresponds to a Ki of 42 nM. In addition, on human VR1 [2], the Emax at 6 µM turned out to be 115%, the EC50 came to 94 nM and the inhibition at 1 µM was 92%.

Regarding `CC(C)(C)c1ccc(CCC(=O)Nc2ccc(-c3cccc(NS(C)(=O)=O)c3)cc2)cc1` [Cpd 40], the “h Binding % I (1 μM)” value on human VR1 [1] was 41%. The “% Response Relative to EC80” value at human VR1 [2] was 74%.

Regarding `CC(C)(C)c1ccc(CCC(=O)Nc2ccc(-c3ccc(O)cc3)c(F)c2)cc1` [Cpd 101], the Ki on human VR1 [1] worked out at 50 nM. For the same compound, on human VR1 [2], the Emax at 6 µM came out at 71% and the inhibition at 1 µM came to 95%.

`O=C(CCc1ccc(Cl)cc1)Nc1ccc(-n2cnc(Cl)c2Cl)c(C(F)(F)F)c1` [Cpd 231] showed a Ki on human VR1 [1] of 26.2 nM. For the same compound, at human VR1 [2], the IC50 turned out to be 240 nM and the inhibition at 1 µM was determined as 90%.

In the case of `Cc1cc(NC(=O)CCc2ccc(C(C)(C)C)cc2)cnc1-n1cnc(Cl)c1Cl` [Cpd 215], on human VR1 [1], the Ki stood at 7.4 nM. Besides, on human VR1 [2], the IC50 turned out to be 74.3 nM and the inhibition at 5 µM is 100%.

The values above are taken from patent US20060223837A1 (priority 2005, published 2006).
